Measured values taken from US9242970B2 (ACTELION PHARMACEUTICALS LTD., priority 2010, dated 2016).
pIC50: −log10 of the molar value.

Key:
human orexin-1 receptor = human orexin-1 receptor (Homo sapiens (Human), UniProt O43613); test: In vitro assay: intracellular calcium measurements (FLIPR), antagonistic activity; assay type: cell-based; conditions: CHO cells, 3 nM orexin-A, compound incubation 120 min; marked values are geometric means of n = 2-6; read-out: IC50 OX1
human orexin-2 receptor = human orexin-2 receptor (Homo sapiens (Human), UniProt O43614); test: as above; assay type: cell-based; conditions: CHO cells, 3 nM orexin-A, compound incubation 120 min; marked values are geometric means of n = 2-6; read-out: IC50 OX2
human orexin-2 receptor, sequence (O43614 whole entry): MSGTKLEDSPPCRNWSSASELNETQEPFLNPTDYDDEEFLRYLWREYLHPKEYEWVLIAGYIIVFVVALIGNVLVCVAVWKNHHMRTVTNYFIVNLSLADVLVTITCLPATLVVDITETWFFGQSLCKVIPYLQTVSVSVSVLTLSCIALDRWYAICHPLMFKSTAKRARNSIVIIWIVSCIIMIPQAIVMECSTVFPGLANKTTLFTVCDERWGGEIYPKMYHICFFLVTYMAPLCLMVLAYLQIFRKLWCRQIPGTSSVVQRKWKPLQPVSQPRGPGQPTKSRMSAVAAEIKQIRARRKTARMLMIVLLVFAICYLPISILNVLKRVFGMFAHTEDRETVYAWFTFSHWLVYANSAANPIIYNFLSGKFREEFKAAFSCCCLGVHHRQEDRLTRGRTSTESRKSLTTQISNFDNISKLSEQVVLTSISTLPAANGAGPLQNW

human orexin-1 receptor, sequence (O43613 whole entry): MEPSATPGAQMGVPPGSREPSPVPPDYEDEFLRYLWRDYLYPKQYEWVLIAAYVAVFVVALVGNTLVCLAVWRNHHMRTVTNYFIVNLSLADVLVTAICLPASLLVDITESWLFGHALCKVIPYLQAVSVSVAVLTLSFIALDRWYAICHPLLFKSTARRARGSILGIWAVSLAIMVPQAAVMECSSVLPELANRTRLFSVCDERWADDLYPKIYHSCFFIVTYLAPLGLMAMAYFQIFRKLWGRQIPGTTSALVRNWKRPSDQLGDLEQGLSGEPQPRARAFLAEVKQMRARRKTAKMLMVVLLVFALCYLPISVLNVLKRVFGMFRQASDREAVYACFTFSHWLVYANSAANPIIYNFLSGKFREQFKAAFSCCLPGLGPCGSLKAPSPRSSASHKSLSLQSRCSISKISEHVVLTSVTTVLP

| Compound | pIC50 (human orexin-1 receptor) | pIC50 (human orexin-2 receptor) |
| --- | --- | --- |
| COc1cccc(OC)c1C1CC(F)(F)C(=O)N1Cc1cccc(-c2ccccc2)c1 (stereo not drawn) [Example 336, 1-([1,1′-biphenyl]-3-ylmethyl)-5-(2,6-dimethoxyphenyl)-3,3-difluoropyrrolidin-2-one] | 7.80 | 7.09 |
| CCOc1cccc(OC)c1C1CC(F)(F)C(=O)N1Cc1cccc(-c2ccccc2)c1 (stereo not drawn) [Example 337, 1-([1,1′-biphenyl]-3-ylmethyl)-5-(2-ethoxy-6-methoxyphenyl)-3,3-difluoropyrrolidin-2-one] | 7.92 | 7.20 |
| COc1cccc(OC)c1C1CC(C)C(=O)N1Cc1cnc2ccccc2c1 (stereo not drawn) [Example 347, 5-(2,6-dimethoxyphenyl)-3-methyl-1-(quinolin-3-ylmethyl)pyrrolidin-2-one] | 5.85 | 6.11 |
| COc1cccc(OC)c1C1CC(C)C(=O)N1Cc1ccc2ccccc2n1 (stereo not drawn) [Example 348, 5-(2,6-dimethoxyphenyl)-3-methyl-1-(quinolin-2-ylmethyl)pyrrolidin-2-one] | 6.69 | 6.32 |
| COc1ccnc(OC)c1C1CC(C)C(=O)N1Cc1cccc(-c2ncc(C)s2)c1 (stereo not drawn) [Example 349, 5-(2,4-dimethoxypyridin-3-yl)-3-methyl-1-(3-(5-methylthiazol-2-yl)benzyl)pyrrolidin-2-one] | 6.98 | 6.92 |
| COc1ccnc(OC)c1C1CC(C)C(=O)N1Cc1csc(-c2ccc(C)cc2)n1 (stereo not drawn) [Example 350, 5-(2,4-dimethoxypyridin-3-yl)-3-methyl-1-((2-(p-tolyl)thiazol-4-yl)methyl)pyrrolidin-2-one] | 6.18 | 7.29 |
| COc1cccc(OC)c1C1CC(C)C(=O)N1Cc1ccnc(-c2ncc(C)s2)c1 (stereo not drawn) [Example 351, 5-(2,6-dimethoxyphenyl)-3-methyl-1-((2-(5-methylthiazol-2-yl)pyridin-4-yl)methyl)pyrrolidin-2-one] | 7.80 | 7.29 |
| COc1ccnc(OC)c1C1CC(C)C(=O)N1Cc1ccc2oc3ccccc3c2c1 (stereo not drawn) [Example 352, 1-(dibenzo[b,d]furan-2-ylmethyl)-5-(2,4-dimethoxypyridin-3-yl)-3-methylpyrrolidin-2-one] | 8.15 | 7.89 |
| COc1cccc(OC)c1C1CC(F)(F)C(=O)N1Cc1ccc2oc3ccccc3c2c1 (stereo not drawn) [Example 353, 1-(dibenzo[b,d]furan-2-ylmethyl)-5-(2,6-dimethoxyphenyl)-3,3-difluoropyrrolidin-2-one] | 8.40 | 7.72 |
| COc1ccnc(OC)c1C1CC(C)C(=O)N1Cc1cccc(-c2ccccc2)c1 (stereo not drawn) [Example 354, 1-([1,1′-biphenyl]-3-ylmethyl)-5-(2,4-dimethoxypyridin-3-yl)-3-methylpyrrolidin-2-one] | 7.25 | 6.95 |
| COc1ccnc(OC)c1C1CC(C)C(=O)N1Cc1cccc(-c2nc(Cl)cs2)c1 (stereo not drawn) [Example 355, 1-(3-(4-chlorothiazol-2-yl)benzyl)-5-(2,4-dimethoxypyridin-3-yl)-3-methylpyrrolidin-2-one] | 7.47 | 6.99 |
| COc1ccnc(OC)c1C1CC(C)C(=O)N1Cc1cccc(-c2csc(C)n2)c1 (stereo not drawn) [Example 356, 5-(2,4-dimethoxypyridin-3-yl)-3-methyl-1-(3-(2-methylthiazol-4-yl)benzyl)pyrrolidin-2-one] | 7.52 | 6.95 |
| COc1cccc(F)c1C1CC(C)C(=O)N1Cc1cnc2ccccc2c1 (stereo not drawn) [Example 358, 5-(2-fluoro-6-methoxyphenyl)-3-methyl-1-(quinolin-3-ylmethyl)pyrrolidin-2-one] | 6.02 | 5.90 |
| COc1cccc(F)c1C1CC(C)C(=O)N1Cc1ccc2ccccc2n1 (stereo not drawn) [Example 359, 5-(2-fluoro-6-methoxyphenyl)-3-methyl-1-(quinolin-2-ylmethyl)pyrrolidin-2-one] | 5.77 | 6.48 |
| COc1cccc(F)c1C1CC(C)C(=O)N1Cc1ccnc(-c2ncc(C)s2)c1 (stereo not drawn) [Example 360, 5-(2-fluoro-6-methoxyphenyl)-3-methyl-1-((2-(5-methylthiazol-2-yl)pyridin-4-yl)methyl)pyrrolidin-2-one] | 6.45 | 7.92 |
| COc1cccc(F)c1C1CC(C)C(=O)N1Cc1ccnc(-n2cccn2)c1 (stereo not drawn) [Example 361, 1-((2-(1H-pyrazol-1-yl)pyridin-4-yl)methyl)-5-(2-fluoro-6-methoxyphenyl)-3-methylpyrrolidin-2-one] | 6.07 | 7.06 |
| COc1cccc(F)c1C1CC(C)C(=O)N1Cc1ccc2oc3ccccc3c2c1 (stereo not drawn) [Example 362, 1-(dibenzo[b,d]furan-2-ylmethyl)-5-(2-fluoro-6-methoxyphenyl)-3-methylpyrrolidin-2-one] | 7.07 | 8.22 |
| COc1cccc(F)c1C1CC(C)C(=O)N1Cc1csc(-c2ccc(C)cc2)n1 (stereo not drawn) [Example 363, 5-(2-fluoro-6-methoxyphenyl)-3-methyl-1-((2-(p-tolyl)thiazol-4-yl)methyl)pyrrolidin-2-one] | 6.37 | 7.31 |
| COc1cccc(F)c1C1CC(C)C(=O)N1Cc1cccc(-c2ncc(C)s2)c1 (stereo not drawn) [Example 364, 5-(2-fluoro-6-methoxyphenyl)-3-methyl-1-(3-(5-methylthiazol-2-yl)benzyl)pyrrolidin-2-one] | 6.92 | 7.96 |
| COc1cccc(F)c1C1CC(C)C(=O)N1Cc1cccc(-c2nc(Cl)cs2)c1 (stereo not drawn) [Example 365, 1-(3-(4-chlorothiazol-2-yl)benzyl)-5-(2-fluoro-6-methoxyphenyl)-3-methylpyrrolidin-2-one] | 6.94 | 8.05 |
| COc1cccc(F)c1C1CC(C)C(=O)N1Cc1ccnc(-c2nc(C)cs2)c1 (stereo not drawn) [Example 366, 5-(2-fluoro-6-methoxyphenyl)-3-methyl-1-((2-(4-methylthiazol-2-yl)pyridin-4-yl)methyl)pyrrolidin-2-one] | 6.80 | 8.10 |
| CCOc1cccc(F)c1C1CC(C)C(=O)N1Cc1cccc(OC(F)(F)F)c1 (stereo not drawn) [Example 371, 5-(2-ethoxy-6-fluorophenyl)-3-methyl-1-(3-(trifluoromethoxy)benzyl)pyrrolidin-2-one] | 6.41 | 7.72 |
| CCOc1cccc(F)c1C1CC(C)C(=O)N1Cc1ccc(OC(F)(F)F)c(F)c1 (stereo not drawn) [Example 372, 5-(2-ethoxy-6-fluorophenyl)-1-(3-fluoro-4-(trifluoromethoxy)benzyl)-3-methylpyrrolidin-2-one] | 5.83 | 6.94 |
| CCOc1cccc(F)c1C1CC(C)C(=O)N1Cc1cccc(OC(F)F)c1 (stereo not drawn) [Example 374, 1-(3-(difluoromethoxy)benzyl)-5-(2-ethoxy-6-fluorophenyl)-3-methylpyrrolidin-2-one] | 6.01 | 7.39 |
| CCOc1cccc(F)c1C1CC(C)C(=O)N1Cc1ccc(OC(F)F)c(Cl)c1 (stereo not drawn) [Example 375, 1-(3-chloro-4-(difluoromethoxy)benzyl)-5-(2-ethoxy-6-fluorophenyl)-3-methylpyrrolidin-2-one] | 6.15 | 7.19 |
| CCOc1cccc(F)c1C1CC(C)C(=O)N1Cc1cnc2ccccc2c1 (stereo not drawn) [Example 378, 5-(2-ethoxy-6-fluorophenyl)-3-methyl-1-(quinolin-3-ylmethyl)pyrrolidin-2-one] | 5.79 | 6.16 |
| CCOc1cccc(F)c1C1CC(C)C(=O)N1Cc1ccc2ccccc2n1 (stereo not drawn) [Example 379, 5-(2-ethoxy-6-fluorophenyl)-3-methyl-1-(quinolin-2-ylmethyl)pyrrolidin-2-one] | 6.00 | 7.15 |
